Test [1] has as its system mitochondrial protein synthesis (MPS) in H9C2 cells. The experiment in a line: In vitro assay for MPS inhibition (COX-1 / SDH-A ELISA in H9C2 cells). The format is cell-based, rat. To be noted: read-out: IC50 (μM) MPS inhibition. For orientation: An ELISA detects its analyte on a solid surface through an enzyme-linked reagent.
Test [2] relates to Mycobacterium tuberculosis H37Rv. The experiment in a line: In vitro assay for antimicrobial susceptibility (microplate Alamar blue, MIC). It is filed as cell-based. To be noted: for MIC: Mycobacterium tuberculosis, read-out: MIC (μg/mL) against H37Rv. On the technique in general: Alamar Blue is a resazurin reagent that responds to reducing activity.
Setting [3] is: M. tuberculosis H37Rv, 7H9 broth, Alamar blue.
Setting [4] is: Rattus norvegicus, 120 h, H9C2 cells, 5 days incubation.

Usually IC50 stands for the concentration needed to halve the response being measured.

Converted amounts (≈) assume the structure as drawn. Read-outs that look alike come from different tables or passages of the source.

Turning to `O=C(NC[C@H]1CN(c2cc(F)c(N3[C@@H]4CC[C@H]3C[S+]([O-])C4)c(F)c2)C(=O)O1)C1CCC1` (stereo partly drawn) [OTB-513, N-(((5S)-3-(3,5-Difluoro-4-((1R,5S)-3-oxido-3-thia-8-azabicyclo[3.2.1]octan-8-yl)phenyl)-2-oxo-oxazolidin-5-yl)methyl)cyclobutanecarboxamide], the IC50 in test [1] (Rattus norvegicus, H9c2, 120 h) turned out to be 13 µM. Also, in test [2] (H37RV), the MIC was determined as 1.66 µg/mL (≈ 3.67 µM).
Regarding “(R)-5-((2H-1,2,3-Triazol-2-yl)methyl)-3-(3-fluoro-4-(2-oxa-6-azaspiro[3.3]heptan-6-yl)phenyl)oxazolidin-2-one [OTB-204]”, the IC50 in test [1] (H9C2 cells, 5 days incubation) is above 100 µM. Besides, the “MIC (μg/mL) against H37Rv” value in test [2] (setting [3]) was 3.2 to 3.7 µg/mL.
On to `O=C1O[C@@H](Cn2ccnn2)CN1c1cc(F)c(N2C3CCC2COC3)c(F)c1` [OBD-055, (5R)-5-((1H-1,2,3-triazol-1-yl)methyl)-3-(4-(3-oxa-8-aza-bicyclo[3.2.1]octan-8-yl)-3,5-difluorophenyl)oxazolidin-2-one], for which, in test [1] (Rattus norvegicus, H9c2, 120 h), the IC50 was determined as 15 µM. The MIC in test [2] (H37RV) came to 1.3 µg/mL (≈ 3.32 µM).
Regarding `O=C1OC(Cn2ccnn2)CN1c1cc(F)c(N2CC3CCC(C2)O3)c(F)c1` (centres unmarked) [OBD-054, 5-((1H-1,2,3-triazol-1-yl)methyl)-3-(4-(8-oxa-3-aza-bicyclo[3.2.1]octan-3-yl)-3,5-difluorophenyl)oxazolidin-2-one], the IC50 in test [1] (setting [4]) was 6 to 31 µM. Also, the MIC in test [2] (setting [3]) was 0.5 µg/mL (≈ 1.28 µM).
Turning to `CC(=O)NC[C@H]1CN(c2ccc(N3C4CSCC3C4)c(F)c2)C(=O)O1` [OTB-227, N-(((5S)-3-(4-(3-Thia-6-azabicyclo[3.1.1]heptan-6-yl)-3-fluorophenyl)-2-oxo-oxazolidin-5-yl)methyl)acetamide], the IC50 in test [1] (Rattus norvegicus, H9c2, 120 h) is 15.2 µM. For the same compound, the MIC in test [2] (H37RV) came out at 0.889 µg/mL (≈ 2.43 µM).
For the compound `CCCC(=O)OC[C@H]1CN(c2ccc(N3CCC[S+]([O-])CC3)c(F)c2)C(=O)O1` (stereo partly drawn) [OTB-126, [(5R)-3-[3-Fluoro-4-(1-oxido-1,4-thiazepan-4-yl)phenyl)-2-oxo-oxazolidin-5-yl]methyl butyrate], the IC50 in test [1] (setting [4]) was determined as 35.6 µM. Further, the MIC in test [2] (setting [3]) was 0.847 µg/mL (≈ 2.05 µM).
On the same counts, the results for `O=C1O[C@@H](Cn2cncn2)CN1c1ccc(N2CCCSCC2)c(F)c1` [OTB-119, (R)-5-[(1H-1,2,4-Triazol-1-yl)methyl]-3-[3-fluoro-4-(1,4-thiazepan-4-yl)phenyl]oxazolidin-2-one] are above 100 µM and 0.456 µg/mL (≈ 1.21 µM).
On the same counts, the results for `O=C1O[C@@H](CNc2ccon2)CN1c1ccc(N2CC3(COC3)C2)c(F)c1` [OBD-056] are 17 µM and 1.9 µg/mL (≈ 5.08 µM).
`COC(=O)NC[C@H]1CN(c2cc(F)c(N3[C@@H]4CC[C@H]3CSC4)c(F)c2)C(=O)O1` [OTB-512, Methyl (((S)-3-(4-((1R,5S)-3-thia-8-azabicyclo[3.2.1]octan-8-yl)-3,5-difluorophenyl)-2-oxo-oxazolidin-5-yl)methyl)carbamate]: the IC50 in test [1] (Rattus norvegicus, H9c2, 120 h) came out at 42.5 µM. Further, in test [2] (H37RV), the MIC stood at 0.063 µg/mL (≈ 0.152 µM).
Take `CC(C)(C)C(=O)NC[C@H]1CN(c2ccc(N3CCCSCCC3)c(F)c2)C(=O)O1` [OTB-121, (S)—N-[[3-(3-Fluoro-4-(1,5-thiazocan-5-yl)phenyl)-2-oxo-oxazolidin-5-yl]methyl]pivalamide]: in test [1] (setting [4]), the half-maximal inhibitory concentration (IC50) was 17.6 µM. For the same compound, the MIC in test [2] (setting [3]) came out at 2.79 µg/mL (≈ 6.58 µM).
For the compound `CCCC(=O)NC[C@H]1CN(c2ccc(N3CCC[S+]([O-])CC3)c(F)c2)C(=O)O1` (stereo partly drawn) [OBD-006, N-(((5S)-3-(3-Fluoro-4-(1-oxido-1,4-thiazepan-4-yl)phenyl)-2-oxooxazolidin-5-yl)methyl)butyramide], the IC50 in test [1] (setting [4]) worked out at 7.49 µM. Further, in test [2] (setting [3]), the MIC was 0.49 µg/mL (≈ 1.19 µM).
On the same counts, the results for `O=C(NC[C@H]1CN(c2ccc(N3CC4(COC4)C3)c(F)c2)C(=O)O1)C1CCC1` [OTB-239, (S)—N-((3-(3-Fluoro-4-(2-oxa-6-azaspiro[3.3]heptan-6-yl)phenyl)-2-oxo-oxazolidin-5-yl)methyl)cyclobutanecarboxamide] are 19 to 67 µM and 2.1 to 3.8 µg/mL (≈ 5.39 to 9.76 µM).
Consider `COC(=O)NC[C@H]1CN(c2ccc(N3CC4CCC(C3)O4)c(F)c2)C(=O)O1` [OBD-111], for which, in test [1] (setting [4]), the IC50 came to 7 µM. In addition, the MIC in test [2] (setting [3]) was determined as 0.49 µg/mL (≈ 1.29 µM).
For `O=C1O[C@@H](Cn2cncn2)CN1c1ccc(N2CCCSCCC2)c(F)c1` [OBD-008, (R)-5-((1H-1,2,4-triazol-1-yl)methyl)-3-(3-fluoro-4-(1,5-thiazocan-5-yl)phenyl)oxazolidin-2-one] the same measures were 29.9 µM and 3.51 µg/mL (≈ 8.97 µM).
On the same counts, the results for `O=C1O[C@@H](Cn2cncn2)CN1c1ccc(N2CCC[S+]([O-])CCC2)c(F)c1` [OBD-009, (R)-5-((1H-1,2,4-Triazol-1-yl)methyl)-3-(3-fluoro-4-(1-oxido-1,5-thiazocan-5-yl)phenyl)oxazolidin-2-one] are above 100 µM and 21.1 µg/mL (≈ 51.7 µM).
On the same counts, the results for `CS(=O)(=O)NC[C@H]1CN(c2cc(F)c(N3CC4(COC4)C3)c(F)c2)C(=O)O1` [OTB-232, (R)—N-((3-(3,5-Difluoro-4-(2-oxa-6-azaspiro[3.3]heptan-6-yl)phenyl)-2-oxo-oxazolidin-5-yl)methyl)methanesulfonamide] are above 100 µM and 1.5 to 4 µg/mL (≈ 3.72 to 9.92 µM).
Take `CCCC(=O)NC[C@H]1CN(c2ccc(N3C4CCC3CSC4)c(F)c2)C(=O)O1` [OBD-016, N—(((S)-3-(4-(3-thia-8-aza-bicyclo[3.2.1]octan-8-yl)-3-fluorophenyl)-2-oxooxazolidin-5-yl)methyl)butyramide]: in test [1] (Rattus norvegicus, H9c2, 120 h), the IC50 turned out to be 13 µM. The MIC in test [2] (H37RV) was 0.486 µg/mL (≈ 1.19 µM).
Regarding `CS(=O)(=O)NC[C@H]1CN(c2ccc(N3CC4(C3)C[S+]([O-])C4)c(F)c2)C(=O)O1` [OTB-260-2B], in test [1] (setting [4]), the IC50 was above 100 µM. For the same compound, the MIC in test [2] (setting [3]) is 0.49 µg/mL (≈ 1.17 µM).
Take `CC(=O)NC[C@H]1CN(c2cc(F)c(N3C4CCC3COC4)c(F)c2)C(=O)O1` [OBD-051]: the IC50 in test [1] (Rattus norvegicus, H9c2, 120 h) was found to be 6 µM. The MIC in test [2] (H37RV) is 0.6 µg/mL (≈ 1.57 µM).
In the case of `O=C1O[C@@H](Cn2ccnn2)CN1c1ccc(N2CCC[S+]([O-])CCC2)c(F)c1` [OBD-002, (R)-5-((1H-1,2,3-Triazol-1-yl)methyl)-3-(3-fluoro-4-(1-oxido-1,5-thiazocan-5-yl)phenyl)oxazolidin-2-one], in test [1] (setting [4]), the IC50 came out at 29 µM. Further, the MIC in test [2] (setting [3]) was 1.6 µg/mL (≈ 3.93 µM).
On to `CC(=O)NC[C@H]1CN(c2cc(F)c(N3[C@@H]4CC[C@H]3C[S+]([O-])C4)c(F)c2)C(=O)O1` (stereo partly drawn) [OTB-514, N-(((5S)-3-(3,5-Difluoro-4-((1R,5S)-3-oxido-3-thia-8-azabicyclo[3.2.1]octan-8-yl)phenyl)-2-oxo-oxazolidin-5-yl)methyl) acetamide], for which, in test [1] (Rattus norvegicus, H9c2, 120 h), the IC50 was 25 µM. Also, in test [2] (H37RV), the MIC came to 0.5 µg/mL (≈ 1.21 µM).
On to `CNC(=O)OC[C@H]1CN(c2ccc(N3CC4(C3)C[S+]([O-])C4)c(F)c2)C(=O)O1` [OTB-260-4B], for which the IC50 in test [1] (setting [4]) is above 100 µM. Besides, the MIC in test [2] (H37RV) is 20 µg/mL (≈ 50.3 µM).
On the same counts, the results for `CNC(=O)OC[C@H]1CN(c2cc(F)c(N3CC4(CSC4)C3)c(F)c2)C(=O)O1` [OTB-516-4A] are above 100 µM and 0.03 µg/mL (≈ 0.0751 µM).
On to `NC[C@H]1CN(c2ccc(N3CC4CCC(C3)O4)c(F)c2)C(=O)O1` [OBD-113, 3-(4-(8-oxa-3-aza-bicyclo[3.2.1]octan-3-yl)-3-fluorophenyl)-5-(aminomethyl)oxazolidin-2-one], for which the 50% inhibitory concentration (IC50) in test [1] (setting [4]) is above 100 µM. For the same compound, in test [2] (setting [3]), the MIC turned out to be 0.39 µg/mL (≈ 1.21 µM).
For `CS(=O)(=O)NC[C@H]1CN(c2ccc(N3CC4(CSC4)C3)c(F)c2)C(=O)O1` [OTB-260-2A] the same measures were above 100 µM and 0.82 µg/mL (≈ 2.04 µM).
With `NC[C@H]1CN(c2ccc(N3C4CCC3C[S+]([O-])C4)c(F)c2)C(=O)O1` (some centres unmarked) [OBD-085], in test [1] (Rattus norvegicus, H9c2, 120 h), the IC50 is above 100 µM. In addition, the MIC in test [2] (H37RV) was determined as 1.1 µg/mL (≈ 3.11 µM).
Consider `COC(=O)NC[C@H]1CN(c2ccc(N3CC4(C3)C[S+]([O-])C4)c(F)c2)C(=O)O1` [OTB-256], for which, in test [1] (setting [4]), the IC50 was 46 µM. Besides, the MIC in test [2] (setting [3]) was 4 µg/mL (≈ 10.1 µM).
With `O=C1O[C@@H](CO)CN1c1ccc(N2CC3(CSC3)C2)c(F)c1` [OTB-260, (R)-3-(3-Fluoro-4-(2-thia-6-azaspiro[3.3]heptan-6-yl)phenyl)-5-(hydroxymethyl)oxazolidin-2-one], the IC50 in test [1] (setting [4]) stood at 30 µM. In addition, the MIC in test [2] (setting [3]) turned out to be 1.49 µg/mL (≈ 4.59 µM).
For `CC(=O)NC[C@H]1CN(c2cc(F)c(N3CCCSCC3)c(F)c2)C(=O)O1` [OTB-407, (S)—N-((3-(3,5-Difluoro-4-(1,4-thiazepan-4-yl)phenyl)-2-oxo-oxazolidin-5-yl)methyl)acetamide] the same measures were 3.08 µM and 0.097 µg/mL (≈ 0.252 µM).
On the same counts, the results for `O=C(NC[C@H]1CN(c2ccc(N3CC4(COC4)C3)c(F)c2)C(=O)O1)C1CC1` [OTB-238, (S)—N-((3-(3-Fluoro-4-(2-oxa-6-azaspiro[3.3]heptan-6-yl)phenyl)-2-oxo-oxazolidin-5-yl)methyl)cyclopropanecarboxamide] are 20 µM and 2 to 4 µg/mL (≈ 5.33 to 10.7 µM).
For `O=C1O[C@@H](Cn2ccnn2)CN1c1ccc(N2CC3(CSC3)C2)c(F)c1` [OTB-241, (R)-5-((1H-1,2,3-Triazol-1-yl)methyl)-3-(3-fluoro-4-(2-thia-6-azaspiro[3.3]heptan-6-yl)phenyl)oxazolidin-2-one] the same measures were 19.8 µM and 0.116 µg/mL (≈ 0.309 µM).
In the case of `O=C1O[C@@H](CNc2ccon2)CN1c1cc(F)c(N2CC3(COC3)C2)c(F)c1` [OBD-061], in test [1] (setting [4]), the IC50 amounted to 29 µM. The MIC in test [2] (setting [3]) came out at 0.8 µg/mL (≈ 2.04 µM).
For `CCCCS(=O)(=O)NC[C@H]1CN(c2ccc(N3CCCSCC3)c(F)c2)C(=O)O1` [OTB-116, (R)—N-[[3-(3-Fluoro-4-(1,4-thiazepan-4-yl)phenyl)-2-oxo-oxazolidin-5-yl]methyl]butane-1-sulfonamide] the same measures were above 100 µM and 3.81 µg/mL (≈ 8.56 µM).
For `O=C(NC[C@H]1CN(c2cc(F)c(N3CC4(C3)C[S+]([O-])C4)c(F)c2)C(=O)O1)C1CC1` [OTB-252] the same measures were 52 µM and 0.7 µg/mL (≈ 1.65 µM).
